Converted amounts (≈) assume the structure as drawn. The source made the active and inactive calls. The rule behind the calls is not given here.
Assays:
[1] = system: Mycobacterium tuberculosis variant bovis; test: Antimycobacterial activity against Mycobacterium bovis BCG ATCC 35734 assessed as membrane depolarization at 200 uM by DiOC2-based fluorescence assay relative to control; type: functional, Mycobacterium tuberculosis variant bovis BCG
[2] = system: Mycobacterium tuberculosis variant bovis; test: Antimycobacterial activity against Mycobacterium bovis BCG ATCC 35734 in presence of menaquinone; type: functional
[3] = system: Mycobacterium tuberculosis variant bovis; test: Antimycobacterial activity against Mycobacterium bovis BCG ATCC 35734 after 5 days by broth dilution method; type: functional; settings: ATCC 35734, 120 h
[4] = system: Mycobacterium tuberculosis variant bovis; test: Antimycobacterial activity against Mycobacterium bovis BCG ATCC 35734 using middlebrook 7H9 broth media after 5 days by broth dilution method; type: functional; settings: ATCC 35734, 120 h
[5] = system: Mycobacterium tuberculosis variant bovis; test: Antimycobacterial activity against Mycobacterium bovis BCG ATCC 35734 using middlebrook 7H9 broth media supplemented with 10 % fetal bovine serum after 5 days by broth dilution method; type: functional; settings: ATCC 35734, 120 h
[6] = system: Mycobacterium tuberculosis variant bovis; test: Antimycobacterial activity against Mycobacterium bovis BCG ATCC 35734 assessed as membrane depolarization at 12 uM by DiOC2-based fluorescence assay; type: functional; settings: TDE = time-dependent effect
[7] = system: Mycobacterium tuberculosis variant bovis; test: Antimycobacterial activity against Mycobacterium bovis BCG ATCC 35734 assessed as increase in permeabilized cells at 12 uM by propidium iodide-staining based FACS analysis; type: functional, cell-based; settings: TDE = time-dependent effect
[8] = system: Mycobacterium tuberculosis variant bovis; test: Bactericidal activity against Mycobacterium bovis BCG ATCC 35734 assessed as reduction in colony forming units measured on day 4 by time kill assay; type: functional; settings: ATCC 35734, 96 h, read-out: MBC99.9
[9] = system: Mycobacterium tuberculosis variant bovis; test: Antimycobacterial activity against Mycobacterium bovis BCG ATCC 35734 assessed as membrane depolarization at 1.6 uM measured daily over 5 days of compound treatment by DiOC2-based fluorescence assay; type: functional
[10] = system: Mycobacterium tuberculosis variant bovis; test: Antimycobacterial activity against Mycobacterium bovis BCG ATCC 35734 assessed as increase in permeabilized cells at 1.6 uM measured daily over 5 days of compound treatment by propidium iodide-staining based FACS analysis; type: functional, cell-based
[11] = system: Mycobacterium tuberculosis variant bovis; test: Bactericidal activity against Mycobacterium bovis BCG ATCC 35734 assessed as reduction in colony forming units at 1.6 uM measured daily over 5 days of compound treatment by time kill assay; type: functional
[12] = system: Mycobacterium tuberculosis variant bovis; test: Bactericidal activity against Mycobacterium bovis BCG ATCC 35734 assessed as 1000 fold kill under low-oxygen tension conditions by time kill assay; type: functional, Mycobacterium tuberculosis variant bovis BCG
[13] = system: Mycobacterium tuberculosis variant bovis; test: Induction of cell envelope stress in iniBAC expressing Mycobacterium bovis BCG ATCC 35734 co-expressing RFP assessed as increase in iniBAC promoter gene activity at compound MIC50 after 24 hrs by fluorescence assay relative to control; type: functional, Mycobacterium tuberculosis variant bovis BCG
[14] = system: Mycobacterium tuberculosis variant bovis; test: Induction of cell envelope stress in clgR-pspA expressing Mycobacterium bovis BCG ATCC 35734 co-expressing RFP assessed as increase in clgR promoter gene activity at compound MIC50 after 24 hrs by fluorescence assay relative to control; type: functional, Mycobacterium tuberculosis variant bovis BCG
[15] = system: Mycobacterium tuberculosis variant bovis; test: Antimycobacterial activity against Mycobacterium bovis BCG ATCC 35734 up to 4 times MIC90 after 8 weeks; type: functional
[16] = system: Mycobacterium tuberculosis variant bovis; test: Antimycobacterial activity against Mycobacterium bovis BCG ATCC 35734 assessed as growth inhibition at 10 uM after 5 days relative to control; type: functional; settings: ATCC 35734, 120 h, read-out: GI

| Structure (SMILES) | MIC50 [3] | MIC90 [3] | inhibition of growth at 10 µM [16] | also measured |
| --- | --- | --- | --- | --- |
| N#CC(C#N)=NNc1cccc(Cl)c1 [CARBONYL CYANIDE M-CHLOROPHENYLHYDRAZONE] | – | – | – | Activity [1]: 90% |
| CCCCCCCCn1cc(CN2CCCCCC2)c2c(F)cccc21 | 2 µM (≈ 0.717 µg/mL) | 6 µM (≈ 2.15 µg/mL) | 99% | Activity [2]: Active; MIC50 [4]: 5 µM (≈ 1.79 µg/mL); MIC50 [5]: 4.5 µM (≈ 1.61 µg/mL); Activity [6]: Tde; Activity [7]: Tde; MBC [8]: 12 µM (≈ 4.3 µg/mL); Activity [9]: Active; Activity [10]: Active; Activity [11]: Active; WCC99.9 [12]: 12 to 24 µM; fold change (FC) [13]: 10; fold change (FC) [14]: 5; Activity [15]: Active |
| CCCCCCCCn1cc(CN2CCC(C)CC2)c2cccc(OC)c21 | 4 µM (≈ 1.48 µg/mL) | 8 µM (≈ 2.96 µg/mL) | 99% | – |
| Fc1ccc2c(c1)c(CN1CCCCC1)cn2Cc1ccccc1 | 35 µM (≈ 11.3 µg/mL) | > 50 µM | 99% | – |
| CCCCCCCCn1cc(CNC23CC4CC(CC(C4)C2)C3)c2ccc(F)cc21 | 3 µM (≈ 1.23 µg/mL) | 5 µM (≈ 2.05 µg/mL) | 99% | – |
| CCCCCCCCn1cc(CN2CCCCCC2)c2ccc(OC)cc21 | 4 µM (≈ 1.48 µg/mL) | 6 µM (≈ 2.22 µg/mL) | 99% | – |
| CCCCCCCCn1cc(CN2CCC(C)CC2)c2ccc(F)cc21 | 4 µM (≈ 1.43 µg/mL) | 5 µM (≈ 1.79 µg/mL) | 99% | – |
| CC(C)=CCC/C(C)=C/Cn1cc(CN2CCCCCC2)c2cc(F)ccc21 | 4 µM (≈ 1.53 µg/mL) | 7 µM (≈ 2.68 µg/mL) | 99% | – |
| CCN1CCN(Cc2cn(C/C=C(\C)CCC=C(C)C)c3ccc(F)cc23)CC1 | 13 µM (≈ 5.17 µg/mL) | 25 µM (≈ 9.94 µg/mL) | 99% | – |
| CCCCCCCCn1cc(CN2CCSCC2)c2cc(F)ccc21 | 11 µM (≈ 3.99 µg/mL) | > 50 µM | 99% | – |
| CC(C)=CCC/C(C)=C/Cn1cc(CN2CCN(C)CC2)c2cc(F)ccc21 | 15 µM (≈ 5.75 µg/mL) | 23 µM (≈ 8.82 µg/mL) | 99% | – |
| CCCCCCCCn1cc(CN2CCCCCC2)c2cc(OC)ccc21 | 4 µM (≈ 1.48 µg/mL) | 5 µM (≈ 1.85 µg/mL) | 99% | – |
| CCCCCCCCn1cc(CN2CCC3(CC2)OCCO3)c2cccc(F)c21 | 3 µM (≈ 1.21 µg/mL) | 7 µM (≈ 2.82 µg/mL) | 99% | – |
| CC(C)=CCC/C(C)=C/Cn1cc(CN(C)C)c2cc(F)ccc21 | 14.5 µM (≈ 4.76 µg/mL) | 25 µM (≈ 8.21 µg/mL) | 99% | – |
| CCCCCCCCn1cc(CN2CCCCC2)c2cc(OC)ccc21 | 5 µM (≈ 1.78 µg/mL) | 7.5 to 8 µM (≈ 2.67 to 2.85 µg/mL) | 99% | – |
| CCCCCCCCn1cc(CNC23CC4CC(CC(C4)C2)C3)c2cc(OC)ccc21 | 3 µM (≈ 1.27 µg/mL) | 5 µM (≈ 2.11 µg/mL) | 99% | – |
| CCCCCCCCn1cc(CN2CCC3(CC2)OCCO3)c2c(OC)cccc21 | 6 µM (≈ 2.49 µg/mL) | 9 µM (≈ 3.73 µg/mL) | 99% | – |
| CC(C)=CCC/C(C)=C/Cn1ccc2cc(F)ccc21 | > 50 µM | > 50 µM | 99% | – |

| Structure (SMILES) | MIC50 [3] | MIC90 [3] | inhibition of growth at 10 µM [16] | also measured |
| --- | --- | --- | --- | --- |
| CCCCCCCCn1cc(CN2CCCCC2)c2ccccc21 | 14 µM (≈ 4.57 µg/mL) | 31 µM (≈ 10.1 µg/mL) | 99% | – |
| NNC(=O)c1ccncc1 | – | – | – | Activity [15]: inactive |
| CCCCn1cc(CN2CCCCCC2)c2c(F)cccc21 | 10 µM (≈ 3.02 µg/mL) | 23 µM (≈ 6.96 µg/mL) | 99% | – |
| CCCCCCCCn1cc(CNC23CC4CC(CC(C4)C2)C3)c2cccc(F)c21 | 3 µM (≈ 1.23 µg/mL) | 5 µM (≈ 2.05 µg/mL) | 99% | – |
| CCCCCCCCCCCCn1cc(CN2CCCCCC2)c2c(F)cccc21 | 7 µM (≈ 2.9 µg/mL) | 10 µM (≈ 4.15 µg/mL) | 99% | – |
| N#CCCCn1cc(CN2CCCCC2)c2cc(F)ccc21 | > 50 µM | > 50 µM | 99% | – |
| CCCCN(CCCC)Cc1cn(C/C=C(\C)CCC=C(C)C)c2ccc(F)cc12 | 13 µM (≈ 5.36 µg/mL) | 25.5 µM (≈ 10.5 µg/mL) | 99% | – |
| CCCCCCCCn1cc(CN2CCC3(CC2)OCCO3)c2cccc(OC)c21 | 28 µM (≈ 11.6 µg/mL) | 42 µM (≈ 17.4 µg/mL) | 99% | – |
| CCCCCCCCn1cc(CN2CCC3(CC2)OCCO3)c2ccc(OC)cc21 | 2 µM (≈ 0.829 µg/mL) | 4 µM (≈ 1.66 µg/mL) | 99% | MIC50 [4]: 2.1 µM (≈ 0.871 µg/mL); MIC50 [5]: 2.5 µM (≈ 1.04 µg/mL) |
| Fc1ccc2c(c1)c(CN1CCCCC1)cn2CCCOc1ccccc1 | 19 µM (≈ 6.96 µg/mL) | 50 µM (≈ 18.3 µg/mL) | 99% | – |
| CCCCCCCCn1cc(CN2CCC3(CC2)OCCO3)c2ccc(F)cc21 | 3 µM (≈ 1.21 µg/mL) | 5 µM (≈ 2.01 µg/mL) | 99% | – |
| CCCCCCCCn1cc(CNCCC)c2cc(F)ccc21 | 10 µM (≈ 3.18 µg/mL) | 20 µM (≈ 6.37 µg/mL) | 99% | – |
| CCCCCCCCn1cc(CNC23CC4CC(CC(C4)C2)C3)c2cc(F)ccc21 | 2.5 to 3 µM (≈ 1.03 to 1.23 µg/mL) | 5.5 to 6 µM (≈ 2.26 to 2.46 µg/mL) | 99% | – |
| O=C(Cn1cc(CN2CCCCC2)c2cc(F)ccc21)NC1CC1 | > 50 µM | > 50 µM | 99% | – |
| CC(C)=CCC/C(C)=C/Cn1cc(CNC23CC4CC(CC(C4)C2)C3)c2cc(F)ccc21 | 17.5 µM (≈ 7.61 µg/mL) | 25.5 µM (≈ 11.1 µg/mL) | 99% | – |
| CCCCCCCCn1cc(CN2CCC(C)CC2)c2c(F)cccc21 | 2 µM (≈ 0.717 µg/mL) | 5 µM (≈ 1.79 µg/mL) | 99% | – |
| CC(C)=CCC/C(C)=C/Cn1cc(CN2CCOCC2)c2cc(F)ccc21 | 15.5 µM (≈ 5.74 µg/mL) | > 50 µM | 99% | – |
